pEC50, pKi: −log10 of the molar value.
How the values were obtained:
HIV-Integrase = target: T1, HIV-Integrase (Human immunodeficiency virus type 1 group M subtype B, UniProt P12497); assay: HIV-Integrase binding assay (competition with [3H]-compound I, SPA); settings: competitive binding vs [3H]-compound I to purified integrase; Ki by Cheng and Prusoff; read-out: in vitro binding
T1 construct: Recombinant integrase (0.26 ng) was incubated with the beads
Procedure: HIV-Integrase Inhibition Activity. To evaluate in-vitro activity against HIV-integrase, 5 pmole of biotin labeled substrate DNA was bound to 100 μg of Streptavidin coated PVT SPA beads (Amersham Pharmacia Biotech). Recombinant integrase (0.26 ng) was incubated with the beads for 90 min at 37° C. Unbound enzyme was removed by washing the complex followed by addition of inhibitors and 0.1 fmol of P33 labeled target DNA. The reaction was stopped by adding EDTA to a final concentration of 10 mM. Samples were counted in TopCountNXT (Packard) and the CPM was used as a measure of integration. The reaction condition was as described in A. Engelman and R. Craigie, J. Virol. 69, 5908-5911 (1995). The sequences of substrate and target DNA were described in Nucleic Acid Research 22,1121-1122 (1994).
HIV-Integrase binding assay. In this assay competitive binding experiments with test compounds and a radiolabeled integrase inhibitor (compound I) are performed against purified integrase. SPA bead/DNA/enzyme complexes were prepared as for the integrase inhibition assay except, to each well, 0.69 μl of integrase enzyme ([…]) was used per 2 μl of LTR DNA-attached scintillation proximity beads (stock 50 mg/ml). Binding reactions were carried out in 96-well white polystyrene assay plates (Corning, #3600). The following was added sequentially to each well: 20 μl of water or 20 μl of human serum (Cellgro Cat# 35-060-CL), 5 μl of serially diluted compound (in 50% DMSO/50% integrase SPA buffer), 5 μl of [^3H]-compound I (6,000 cpm/μl in SPA buffer) and 20 μl of bead/DNA/enzyme complex. The plates were shaken for 2 hours and then allowed to sit at room temperature without shaking overnight. The [^3H]-compound I binding was measured using a Topcount scintillation counter. Cheng and Prusoff equations were used to convert the inhibition of compound 1 binding into the corresponding Ki value. Activity equal to A refers to a compound having Ki=0.001 to 0.003 μM while B and C denote compounds having Ki=0.003 to 0.05 μM and Ki≧0.050 μM respectively.

[1] = system: recombinant NL-Rluc virus; assay: Inhibition of HIV replication (NL-RLuc virus, Renilla luciferase); type: cell-based; settings: Human immunodeficiency virus 1, read-out: antiviral actitively

SMILES | pKi (HIV-Integrase) | pEC50 [1]
COCc1ncn(-c2cc(F)ccc2CNC(=O)c2nc3n(c(=O)c2O)CCOCC32CCOCC2)n1 [Example 26, N-((4-fluoro-2-(3-((methyloxy)methyl)-1H-1,2,4-triazol-1-yl)phenyl)methyl)-3′-hydroxy-4′-oxo-2,3,5,6,6′,7′-hexahydro-4′H-spiro[pyran-4,10′-pyrimido[1,2-d][1,4]oxazepine]-2′-carboxamide] | 7.30 to 8.52 | 7.30 to 8.00
CC1(C)COCCn2c1nc(C(=O)NCc1ccc(F)cc1)c(O)c2=O [Example 1, N-((4-Fluorophenyl)methyl)-3-hydroxy-10,10-dimethyl-4-oxo-6,7,9,10-tetrahydro-4H-pyrimido[1,2-d][1,4]oxazepine-2-carboxamide] | 7.30 to 8.52 | 7.30 to 8.00
Cc1nn(-c2cc(F)ccc2CNC(=O)c2nc3n(c(=O)c2O)CCOCC32CCOCC2)c(=O)n1C [Example 28, N-(2-(3,4-dimethyl-5-oxo-4,5-dihydro-1H-1,2,4-triazol-1-yl)-4-fluorobenzyl)-3′-hydroxy-4′-oxo-2,3,4′,5,6,6′,7′,9′-octahydrospiro[pyran-4,10′-pyrimido[1,2-d][1,4]oxazepine]-2′-carboxamide] | 7.30 to 8.52 | 8.00 to 9.00
Cc1ncn(-c2cc(F)ccc2CNC(=O)c2nc3n(c(=O)c2O)CCOCC3(C)C)n1 [Example 6, N-((4-fluoro-2-(3-methyl-1H-1,2,4-triazol-1-yl)phenyl)methyl)-3-hydroxy-10,10-dimethyl-4-oxo-6,7,9,10-tetrahydro-4H-pyrimido[1,2-d][1,4]oxazepine-2-carboxamide] | 7.30 to 8.52 | 8.00 to 9.00
COP(=O)(OC)c1cc(F)ccc1CNC(=O)c1nc2n(c(=O)c1O)CCOCC2(C)C [Example 17, Dimethyl (5-fluoro-2-((((3-hydroxy-10,10-dimethyl-4-oxo-6,7,9,10-tetrahydro-4H-pyrimido[1,2-d][1,4]oxazepin-2-yl)carbonyl)amino)methyl)phenyl)-phosphonate] | 7.30 to 8.52 | 8.00 to 9.00
O=C(NCc1ccc(F)cc1-n1cnc(CO)n1)c1nc2n(c(=O)c1O)CCOCC21CCOCC1 [Example 25, N-((4-fluoro-2-(3-(hydroxymethyl)-1H-1,2,4-triazol-1-yl)phenyl)methyl)-3′-hydroxy-4′-oxo-2,3,5,6,6′,7′-hexahydro-4′H-spiro[pyran-4,10′-pyrimido[1,2-d][1,4]oxazepine]-2′-carboxamide] | 7.30 to 8.52 | < 7.30
CC1(C)COCCn2c1nc(C(=O)NCc1ccc(F)cc1-n1ncnc1-c1ccccc1)c(O)c2=O [Example 20, N-((4-fluoro-2-(5-phenyl-1H-1,2,4-triazol-1-yl)phenyl)methyl)-3-hydroxy-10,10-dimethyl-4-oxo-6,7,9,10-tetrahydro-4H-pyrimido[1,2-d][1,4]oxazepine-2-carboxamide] | ≤ 7.30 | < 7.30
Cc1n[nH]c(-c2cc(F)ccc2CNC(=O)c2nc3n(c(=O)c2O)CCOCC32CCOCC2)n1 [Example 42, N-((4-fluoro-2-(3-methyl-1H-1,2,4-triazol-5-yl)phenyl)methyl)-3′-hydroxy-4′-oxo-2,3,5,6,6′,7′-hexahydro-4′H-spiro[pyran-4,10′-pyrimido[1,2-d][1,4]oxazepine]-2′-carboxamide] | 8.52 to 9.00 | 8.00 to 9.00
Cc1nnn(-c2cc(F)ccc2CNC(=O)c2nc3n(c(=O)c2O)CCOCC3(C)C)c1C [Example 18, N-(2-(4,5-Dimethyl-1H-1,2,3-triazol-1-yl)-4-fluorobenzyl)-3-hydroxy-10,10-dimethyl-4-oxo-6,7,9,10-tetrahydro-4H-pyrimido[1,2-d][1,4]oxazepine-2-carboxamide] | 7.30 to 8.52 | 8.00 to 9.00
O=C(NCc1ccc(F)cc1-n1cncn1)c1nc2n(c(=O)c1O)CCOCC21CCC1 [Example 9, N-((4-fluoro-2-(1H-1,2,4-triazol-1-yl)phenyl)methyl)-3′-hydroxy-4′-oxo-6′,7′-dihydro-4′H-spiro[cyclobutane-1,10′-pyrimido[1,2-d][1,4]oxazepine]-2′-carboxamide] | 8.52 to 9.00 | 8.00 to 9.00
